Measured values published in article PMC6804243, “Small-Molecule Inhibition of UBE2T/FANCL-Mediated Ubiquitylation in the Fanconi Anemia Pathway” (ACS Chemical Biology, 2019).
“Also recorded” adds a separate entry of the source. Read-outs that look alike come from different tables or passages of the source.

Key:
[1] = tested on: T1, UBE1; test: Gel-based ubiquitylation assay (UBE2T/GST-FANCLRING), autoubiquitylation of UBE1; type: biochemical; conditions: compound 100 μM; Western blot probed for biotin
T1 construct: purchased Boston Biochem

[2] = molecular target: T2, UBE2T/FANCLRING (ubiquitylation of GST-FANCLRING) (Homo sapiens, UniProt Q9NW38); test: biochemical; conditions: for LE: ligand efficiency = 1.4(–logIC50)/HAC; for inhibition at 20 µM: read-out: Primary screen % Inhibition (20 M)
T2 sequence (Q9NW38 275-375 limits assumed): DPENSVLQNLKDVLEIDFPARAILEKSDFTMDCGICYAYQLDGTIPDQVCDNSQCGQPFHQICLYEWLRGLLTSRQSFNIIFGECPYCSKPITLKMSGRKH
From the text: To identify small-molecule inhibitors of the FA pathway, we developed a high-throughput screen (HTS) compatible assay based on the FA ubiquitylation cascade (see Figure 1a, as well as Figure S1 in the Supporting Information). Given the complexity of the full FA ubiquitylation cascade, we constructed a simplified ubiquitylation reaction that would be robust for HTS purposes yet still provide many relevant protein species for small molecules to interact with. The recombinant protein assay developed used homogeneous time-resolved fluorescence (HTRF) and contained Cy5-labeled ubiquitin, the E1 enzyme UBE1, the E2 enzyme UBE2T, and the RING domain (residues 275–375) of the E3 FANCL (FANCLRING). FANCLRING was used as a surrogate substrate for ubiquitylation in the absence of the FA core and FANCD2/FANCI complexes.
Figure 1 Screening for inhibitors of the FA pathway. (a) Schematic of the HTRF ubiquitylation assay. Ubiquitylation of GST-tagged E3 (FANCLRING) by the E2 (UBE2T) places Cy5-labeled ubiquitin in close proximity to the anti-GST Tb cryptate. Excitation of the Tb cryptate donor results in FRET to the Cy5 acceptor. Simultaneous monitoring of the donor emission (620 nm) and acceptor emission (665 nm) allows for determination of the 665/620 ratio. (b) HTRF screen results showing average inhibition (n = 2) produced by compounds at 20 μM (in-house diversity library; 10 111 compounds) and 10 μM (Selleckchem epigenetic library; 119 compounds). Numbers given in parentheses represent the number of compounds per inhibition threshold.
Purified protein was concentrated using a Vivaspin-6 concentrator with a 10 kDa MW cut-off (Vivascience) and flash-frozen in small aliquots for storage at […]
Cy5 labelling of ubiquitin. To a 5 mg/mL solution of recombinant human ubiquitin (Boston Biochem) in 0.1 M NaHCO3 pH 8.3, was added a 4-fold molar excess of Cyanine5 NHS ester (Lumiprobe). The reaction was incubated at 23 °C for 4 hours in the dark. The protein was separated from unreacted dye by passage through a PD-10 desalting column (GE Healthcare) equilibrated with PBS. Purified protein was concentrated using a Vivaspin-6 concentrator with a 3 kDa MW cut-off (Vivascience) and flash-frozen in small aliquots for storage […]
Homogeneous Time-Resolved Fluorescence (HTRF) Assay. GST-FANCLRING (200 nM) was incubated with anti-GST Tb (CisBio, #61GSTTL) (2.5 ng final) at room temperature for 30 minutes in assay buffer (50 mM Tris-HCl pH 8.0, 1 mM TCEP, 5 mM MgCl2, 0.005% Tween-20). Meanwhile, 10 μL of UBE2T in assay buffer (or assay buffer alone for no enzyme controls) was incubated in a white 384-well plate (Corning) with 20 nL DMSO or compound in DMSO. After 30 minutes, the GST-RINGRING solution was added to an equal volume solution containing His-UBE1 (Boston Biochem) (16 nM), Cy5-ubiquitin (400 nM), ATP (0.8 mM) in assay buffer. 10 μL of this solution was immediately added to each well of the 384 -well plate containing UBE2T or buffer. F inal concentrations: His -UBE1 (4 nM), UBE2T (6 nM), GST -RINGRING (50 nM), Cy5-ubiquitin (100 nM), ATP (0.2 mM), compound (10 or 20 μM) in 0.1 %
(v/v) DMSO. After a 10 minute incubation at 23 °C, 5 µL of a 50 mM EDTA solution were added to each well to stop the reaction. Signal was measured at λEx 340 nm and λEm 665 nm and 620 nm using a PHERAstar FS plate reader
(BMG Labtech). A ratio was calculated as [λEm(665)/λEm(620)] × 104 for each well and this was used to determine the percent inhibition for test compounds.
Gel-based ubiquitylation assays. Assays were carried out in a total volume of 10 µL containing 20 nM His6-UBE1 (Boston Biochem), 50 nM UBE2T, 250 nM GST-E3 and 500 nM biotinylated ubiquitin (Boston Biochem) in buffer (50

[3] = tested on: T3, UBE2T / GST-FANCLRING; test: Gel-based ubiquitylation assay, E2 = UBE2T, E3 = GST-FANCLRING; type: biochemical; conditions: compound 100 μM, 30 min at 37 °C, Western blot
T3 construct: the RING domain (residues 275–375) of the E3 FANCL (FANCLRING); His6 (N); made in house; host or cells: E. coli Rosetta (DE3)

[4] = library stock, 10-point dose-response, read-out: Primary screen IC50
[5] = printed beside the structures in Figure S3, read-out: IC50 (Figure S3)

Row | inhibition at 20 µM ([2]; primary screen, compound at 20 μM (head prints '20 M'), n = 2) [%] | Compound | autoubiquitylation of UBE1 [1] | IC50 [2, 4] [µM] | LE [2] | IC50 [2, 5] [µM] | inhibition at 20 µM [2] [%] | ubiquitylation of GST-FANCLRING (mUb-GST-FANCLRING band) [3] | ubiquitylation of GST-FANCLRING (mUb-GST-FANCLRING band) ([3]; listed as CU 1)
1 | – | NCCN1C(=O)CC[C@H]2CN(Cc3cccc(-c4ccco4)c3)CC[C@H]21 [CU1] | did not affect ubiquitylation of either UBE2T or UBE1 | 15.2 | 0.23 | 56 | 48.4 | no ubiquitylation of FANCLRING was observed; also recorded: inhibit the ubiquitylation of GST-FANCLRING | completely inhibited the ubiquitylation of GST-FANCLRING
2 | – | CCN1CCN(c2cc(C)nc3nc(CN4CCCCC4C)nn23)CC1 (stereo not shown) [CU2] | did not affect ubiquitylation of either UBE2T or UBE1 | 8.4 | 0.26 | 14.8 | 63.4 | no ubiquitylation of FANCLRING was observed; also recorded: inhibit the ubiquitylation of GST-FANCLRING; also recorded: completely inhibited the ubiquitylation of GST-FANCLRING | –
3 | – | Cc1nnc(N(C)CC2CCN(CC(C)O)CC2)c(C#N)c1C (stereo not shown) [CU9] | did not affect ubiquitylation of either UBE2T or UBE1 | 31.4 | 0.26 | 45.4 | 48.2 | no ubiquitylation of FANCLRING was observed; also recorded: inhibit the ubiquitylation of GST-FANCLRING; also recorded: completely inhibited the ubiquitylation of GST-FANCLRING | –
4 | 107 | NC(=O)[C@@H]1CCCN1C(=O)c1cc(-n2cccc2)ccc1Cl [CU12] | somewhat impaired the autoubiquitylation of UBE1 | 11.5 | 0.32 | 9.9 | – | no ubiquitylation of FANCLRING was observed | –
